{"source": "patent US20230040386A1", "about": "“URSODEOXYCHOLIC ACID-CONTAINING AGENT FOR TREATING OR PREVENTING PRESBYOPIA” (priority 2018, published 2023)", "tested_on": "anterior segment of the eye", "test": "Ocular Irritation Test (McDonald-Shadduck method, lens observation, histopathology)", "assay_type": "in vivo, Japanese White rabbits", "procedure": "A vehicle (aqueous solution) comprising 0.1% (w/v) of ethyl pyruvate, 0.269% (w/v) of sodium dihydrogenphosphate monohydrate ([…]), 0.433% (w/v) of disodium hydrogenphosphate (Na2HPO4), 0.2% (w/v) of hydroxypropyl methylcellulose, 0.5% (w/v) of NaCl was prepared.\nGroup treated with an ophthalmic suspension of ursodeoxycholic acid 1% (w/v), 3% (w/v), and 10% (w/v) ursodeoxycholic acid ophthalmic suspensions were prepared in the same manner as in the above pharmacological tests. These ophthalmic suspensions and the vehicle were each instilled into the left eye of Japanese White rabbits at a dose of 50 μL/eye with pipette twice per day at a 6-hour interval for 2 weeks. One hour after the final instillation, ocular irritation of anterior segment of the eye was evaluated according to the McDonald-Shadduck method, and the lens was observed. The contralateral eye was untreated.\nThe ocular irritation of anterior segment of the eye was scored according to the following criteria:\n+1: mild; +2: moderate; +3: severe.", "key": {"[1]": {"conditions": "after 2 week-repeated instillation of 1%, 3%, 10% ophthalmic suspensions"}}, "data": [{"smiles": "C[C@H](CCC(=O)O)[C@H]1CC[C@H]2[C@@H]3[C@@H](O)C[C@@H]4C[C@H](O)CC[C@]4(C)[C@H]3CC[C@]12C", "note": "[ursodeoxycholic acid, 3α,7β-Dihydroxy-5β-cholan-24-oic acid]", "values": [{"measurement": "Histopathological examination of the eyes, in words", "setting": "[1]", "result": "no abnormal findings"}, {"measurement": "Observation of ocular irritation of anterior segment of the eye and lens observation, in words", "setting": "[1]", "result": "no abnormal findings"}, {"measurement": "Safety of the ophthalmic suspensions, in words", "setting": "rabbit, in vivo", "result": "highly safe"}]}]}
